According to ChEMBL document CHEMBL1144973, “Design, synthesis, and structure-activity relationship of a new class of amidinophenylurea-based factor VIIa inhibitors” (Bioorg Med Chem Lett, 2003):

What was measured:
Coagulation factor VII = target: T1, Coagulation factor VII (Homo sapiens, UniProt P08709); experiment: In vitro inhibitory activity against coagulation factor VII (fVIIa)
T1 sequence (P08709 whole entry): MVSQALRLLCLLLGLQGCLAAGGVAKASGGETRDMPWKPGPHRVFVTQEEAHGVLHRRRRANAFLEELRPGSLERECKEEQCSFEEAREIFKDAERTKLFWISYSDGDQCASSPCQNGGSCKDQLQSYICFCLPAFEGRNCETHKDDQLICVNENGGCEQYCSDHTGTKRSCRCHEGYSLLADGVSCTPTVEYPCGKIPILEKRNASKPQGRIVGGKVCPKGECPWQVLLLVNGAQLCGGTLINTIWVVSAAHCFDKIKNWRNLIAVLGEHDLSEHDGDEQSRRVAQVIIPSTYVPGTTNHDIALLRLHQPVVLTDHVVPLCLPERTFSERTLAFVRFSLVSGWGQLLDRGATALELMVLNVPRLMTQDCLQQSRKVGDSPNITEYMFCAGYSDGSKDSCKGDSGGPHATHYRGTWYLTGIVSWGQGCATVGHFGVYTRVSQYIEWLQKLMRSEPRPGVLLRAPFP

Prothrombin = Prothrombin (Homo sapiens, UniProt P00734); experiment: In vitro inhibitory activity against thrombin
Coagulation factor X = Coagulation factor X (Homo sapiens, UniProt P00742); experiment: In vitro inhibitory activity against […] coagulation factor (fXa)
Sequence of Coagulation factor X (P00742 41-179 limits assumed): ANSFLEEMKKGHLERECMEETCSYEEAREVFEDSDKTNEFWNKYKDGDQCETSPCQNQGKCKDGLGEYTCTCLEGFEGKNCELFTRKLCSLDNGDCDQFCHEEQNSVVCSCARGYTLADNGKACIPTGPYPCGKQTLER
Sequence of Coagulation factor X (P00742 235-488 limits assumed): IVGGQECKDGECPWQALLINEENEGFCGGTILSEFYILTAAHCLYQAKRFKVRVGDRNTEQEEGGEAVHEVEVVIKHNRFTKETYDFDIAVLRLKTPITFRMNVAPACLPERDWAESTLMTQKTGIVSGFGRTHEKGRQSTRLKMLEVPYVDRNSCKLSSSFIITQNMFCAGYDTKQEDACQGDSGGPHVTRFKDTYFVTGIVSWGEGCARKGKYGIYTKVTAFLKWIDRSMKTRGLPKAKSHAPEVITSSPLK

Compound: CC(NC(=O)CNC(=O)Nc1ccc(C(=N)N)c(F)c1)c1ccc2c(c1)NC(=O)CO2 (stereo not given)
- Ki (Coagulation factor VII): 0.47 µM

Compound: C[C@H](NC(=O)CNC(=O)Nc1ccc(C(=N)N)c(Cl)c1)c1cccc(Br)c1
- Ki (Coagulation factor VII): 3.76 µM

Compound: N=C(N)c1ccc(NC(=O)NCC(=O)NCc2cccc(Br)c2)cc1
- Ki (Coagulation factor VII): 1.51 µM
- Ki (Prothrombin): > 50 µM
- Ki (Coagulation factor X): 7.8 µM

Compound: CC(NC(=O)CNC(=O)Nc1ccc(C(=N)N)cc1)c1ccc2c(c1)NC(=O)CO2 (stereo not given)
- Ki (Prothrombin): 16.4 µM
- Ki (Coagulation factor X): > 10 µM

Compound: C[C@H](NC(=O)Nc1ccc(C(=N)N)cc1)C(=O)NCc1ccc(Cl)c(Cl)c1
- Ki (Coagulation factor VII): 45.8 µM

Compound: C[C@H](NC(=O)C(NC(=O)Nc1ccc(C(=N)N)cc1)c1ccccc1)c1cccc(Br)c1 (stereo not given in full)
- Ki (Coagulation factor VII): 3.2 µM

Compound: C[C@H](NC(=O)CNC(=O)Nc1ccc(C(=N)N)cc1)c1ccc2c(c1)OCCO2
- Ki (Coagulation factor VII): 0.067 µM
- Ki (Prothrombin): 11.2 µM
- Ki (Coagulation factor X): > 10 µM

Compound: N=C(N)c1ccc(NC(=O)NCC(=O)NCc2ccc(Cl)c(Cl)c2)cc1
- Ki (Prothrombin): 10.1 µM
- Ki (Coagulation factor X): 14.5 µM

Compound: COc1cccc([C@H](C)NC(=O)CNC(=O)Nc2ccc(C(=N)N)cc2)c1
- Ki (Coagulation factor VII): 0.035 µM
- Ki (Prothrombin): 18.2 µM
- Ki (Coagulation factor X): > 10 µM

Compound: C[C@H](NC(=O)CNC(=O)Nc1ccc(C(=N)N)cc1)c1cccc(Br)c1
- Ki (Coagulation factor VII): 0.027 µM
- Ki (Prothrombin): 15.9 µM
- Ki (Coagulation factor X): > 10 µM

Compound: CC(NC(=O)CNC(=O)Nc1ccc(C(=N)N)cc1)c1ccc(C(F)(F)F)cc1C(F)(F)F (stereo not given)
- Ki (Prothrombin): > 100 µM
- Ki (Coagulation factor X): > 10 µM

Compound: C[C@H](NC(=O)CNC(=O)Nc1ccc(C(=N)N)c(F)c1)c1cccc(Br)c1
- Ki (Coagulation factor VII): 0.12 µM

Compound: C[C@@H](NC(=O)CNC(=O)Nc1ccc(C(=N)N)cc1)c1cccc(Br)c1
- Ki (Coagulation factor VII): 31 µM

Compound: CC(C)(NC(=O)CNC(=O)Nc1ccc(C(=N)N)cc1)c1ccccc1
- Ki (Prothrombin): > 50 µM
- Ki (Coagulation factor X): > 10 µM

Compound: C[C@H](NC(=O)CNC(=O)Nc1ccc(C(=N)N)cc1)c1ccccc1
- Ki (Prothrombin): 50.7 µM
- Ki (Coagulation factor X): > 10 µM

Compound: C[C@@H](NC(=O)CNC(=O)Nc1ccc(C(=N)N)cc1)c1ccccc1
- Ki (Prothrombin): > 50 µM
- Ki (Coagulation factor X): > 10 µM
